# Assay results taken from patent US20090247579A1, “2-[3H-THIAZOL-2-YLIDINEMETHYL]PYRIDINES AND RELATED COMPOUNDS AND THEIR USE” (CANCER RESEARCH TECHNOLOGY LIMITED, priority 2006, published 2009).
# Several values for one entry are separate records, joined by “and”; a condition that tells them apart may be missing. Identical values can stand only once. Like-named read-outs stand apart in the source and are kept apart here.
# Legend:
# A2780/cp70 = assay: Modified MTT assay, A2780/cp70 (cisplatin resistant, MMR deficient); format: cell-based, human; conditions: 24 hour drug exposure; for IC50: MTT; for A2780/cp70 RF (Resistance Factor): fold difference in resistance from parental A2780
# Description: (§1) Relative drug sensitivities (Resistance Factor) and IC50 values were determined by a modified MTT assay (see, e.g., Mosmann, 1983; Plumb et al., 1989), as described below: • (1) Trypsinise a sub-confluent monolayer culture and collect cells in growth medium containing serum. Centrifuge the suspension (200 g, 5 minutes) to pellet cells, re-suspend in growth medium, and count cells. Dilute cells to a density of 5×10^3 cells/mL allowing 60 mL of cell suspension for 3 microtitre plates. Transfer cell suspension to a 10 cm petri dish, and with a multichannel pipette add 200 μL to each well of the central 10 columns of a flat bottomed 96-well plate (80 wells per plate) starting with column 2 and ending with column 11. Add 200 μL of growth medium to the 8 wells in columns 1 and 12. Put the plates in a plastic box and incubate in a humidified atmosphere at 37° C. for 2-3 days so that cells are in the exponential phase of growth for drug addition. • (2) Prepare a serial 5-fold dilution of the cytotoxic drug in growth medium to give 8 concentrations. Pipette 6 mL of growth medium in to each of 7 universal containers (30 mL). Prepare 10 mL of the highest concentration of the drug and transfer 1.5 mL of this solution to the first universal container. Mix and then transfer 1.5 mL to the next universal container. Continue until the seventh universal container is reached. The concentrations should be chosen so that the highest concentration kills most of the cells and the lowest kills none of the cells. Normally, three plates are used for each drug to give triplicate determinations within one experiment. • (3) The medium is removed from all the wells in columns 2 to 11. This can be achieved with a hypodermic needle attached to a suction line. Cells in the 8 wells in columns 2 and 11 are fed with 200 μL of fresh growth medium. The drug solutions are transferred to 10 cm petri dishes and 200 μL added to all 8 wells of a column. For ease of analysis arrange the drug solutions in order so that the highest is in column 3 down to the lowest in column 10. Plates are returned to the plastic box and incubated for 24 hours. • (4) At the end of the drug exposure period, the medium is removed from all wells containing cells and the cells are fed with 200 μL of fresh medium. • (5) The plates are fed daily for two more days. • (6) The plates are fed with 200 μL of fresh medium and 50 μL of the MTT solution (5 mg/mL in PBS) is added to all wells in columns 1 to 11. Plates are wrapped in aluminium foil and incubated for 4 hours in a humidified atmosphere at 37° C. • (7) The medium and MTT are then removed from the wells and the purple MTT-formazan crystals dissolved by addition of 200 μL of DMSO to all wells in columns 1 to 11. Glycine buffer is added (25 μL per well) to all wells containing DMSO. • (8) Absorbance is recorded at 570 nm with the wells in column 1, which contained medium and MTT but no cells used as a blank. • (9) A graph is plotted of absorbance (y-axis) against drug concentration (x-axis). The mean absorbance reading from the wells in columns 2 and 11 is used as the control absorbance and the IC50 concentration is determined as the drug concentration required to reduce the absorbance to half that of the control. IC10 or IC90 values can be determined in the same manner.
# A2780/cp70 and A2780/mcp1 have lost expression of MLH1, have lost MMR activity, and have microsatellite instability compared to A2780. The CpG island at the MLH1 gene is methylated in A2780/cp70 and A2780/mcp1, but not A2780.
# IC50 values (μM) for A2780, A2780/cp70, and A2780/mcp1 and Resistance Factors (RF) (the fold difference in resistance from parental A2780) were determined based on the MTT assay described above for several compounds of the present invention (including, e.g., MMR201).
# [1] = tested on: A2 (MLH1−ve, MMR deficient); assay: Modified MTT assay, A2 line (A2780/cp70 + chromosome 3, MLH1 -ve); format: cell-based, human; conditions: for IC50: A2 line; for RF (Resistance Factor): fold difference in resistance between A2 (MMR deficient) and A1 (MMR proficient)
# Description: as §1
# A1, E1, and A2 are derived by transfer of human chromosome 3 into A2780/cp70. MLH1 is located on chromosome 3.
# IC50 values (μM) for A1 (MLH1+ve, MMR proficient) or E1 (MLH1+ve, MMR proficient) and A2 (MLH1−ve, MMR deficient) lines and Resistance Factors (RF) (the fold difference in resistance between the A2 line, MMR deficient, and the A1 line, MMR proficient) were determined based on the MTT assay described above for several compounds of the present invention (including, e.g., MMR201). Compounds showing increased activity against the MLH1 deficient A2 line compared to the MLH1 proficient A1 or E1 line have RF values less than 1.
# COLO320DM = assay: Modified MTT assay, colon panel COLO320DM; format: cell-based
# Description: (§2) Relative drug sensitivities (Resistance Factor) and IC50 values were determined by a modified MTT assay (see, e.g., Mosmann, 1983; Plumb et al., 1989), as described below: • (1) Trypsinise a sub-confluent monolayer culture and collect cells in growth medium containing serum. Centrifuge the suspension (200 g, 5 minutes) to pellet cells, re-suspend in growth medium, and count cells. Dilute cells to a density of 5×10^3 cells/mL allowing 60 mL of cell suspension for 3 microtitre plates. Transfer cell suspension to a 10 cm petri dish, and with a multichannel pipette add 200 μL to each well of the central 10 columns of a flat bottomed 96-well plate (80 wells per plate) starting with column 2 and ending with column 11. Add 200 μL of growth medium to the 8 wells in columns 1 and 12. […] Glycine buffer is added (25 μL per well) to all wells containing DMSO. • (8) Absorbance is recorded at 570 nm with the wells in column 1, which contained medium and MTT but no cells used as a blank. • (9) A graph is plotted of absorbance (y-axis) against drug concentration (x-axis). The mean absorbance reading from the wells in columns 2 and 11 is used as the control absorbance and the IC50 concentration is determined as the drug concentration required to reduce the absorbance to half that of the control. IC10 or IC90 values can be determined in the same manner. […]
# T84 = assay: Modified MTT assay, colon panel T84; format: cell-based
# Description: as §2
# RKO (MLH1) = assay: Modified MTT assay, colon panel RKO; format: cell-based
# Description: as §2
# DLD1 (MSH6) = assay: Modified MTT assay, colon panel DLD1; format: cell-based
# Description: as §2
# HCT15 (MSH6) = assay: Modified MTT assay, colon panel HCT15; format: cell-based
# Description: as §2
# BE = assay: Modified MTT assay, colon panel BE; format: cell-based
# Description: as §2
# OVCAR5 = assay: Cancer cell line panel, OVCAR5 (ovary); format: cell-based
# Description: as §2
# MDAMB231 = assay: Cancer cell line panel, MDAMB231 (breast); format: cell-based
# Description: as §2
# T47D = assay: Cancer cell line panel, T47D (breast); format: cell-based
# Description: as §2
# MCF7 = assay: Cancer cell line panel, MCF7 (breast); format: cell-based
# Description: as §2
# LDAN = assay: Cancer cell line panel, LDAN (NSCLC); format: cell-based
# Description: as §2
# CALU = assay: Cancer cell line panel, CALU (NSCLC); format: cell-based
# Description: as §2
# DU145 = assay: Cancer cell line panel, DU145 (prostate); format: cell-based
# Description: as §2
smiles,measurement,setting,value
"N.N.[Cl][Pt][Cl] [Cisplatin, reference compound]",IC50,A2780/cp70,1740 nM and 1680 nM
same,A2780/cp70 RF (Resistance Factor),A2780/cp70,8.1 and 6.9
same,IC50,[1],1900 ± 87 nM
same,RF (Resistance Factor),[1],2.7
same,IC50,"COLO320DM; read-out: Cisplatin IC50, MMR proficient, p53 mut",2900 ± 290 nM
same,IC50,"T84; read-out: Cisplatin IC50, MMR proficient, p53 ?",4230 ± 860 nM
same,IC50,"RKO (MLH1); read-out: Cisplatin IC50, MMR deficient",4010 ± 100 nM
same,IC50,"DLD1 (MSH6); read-out: Cisplatin IC50, MMR deficient, p53 mut",1670 ± 30 nM
same,IC50,"HCT15 (MSH6); read-out: Cisplatin IC50, MMR deficient, p53 wt/mut",2920 ± 20 nM
same,IC50,"BE; read-out: Cisplatin IC50, MMR status unknown, p53 ?",8670 ± 1420 nM
same,IC50,OVCAR5; read-out: Cisplatin,1780 ± 100 nM
same,IC50,MDAMB231; read-out: Cisplatin,11200 ± 700 nM
same,IC50,T47D; read-out: Cisplatin,5420 ± 220 nM
same,IC50,MCF7; read-out: Cisplatin,1780 ± 170 nM
same,IC50,LDAN; read-out: Cisplatin,1230 ± 70 nM
same,IC50,CALU; read-out: Cisplatin,7250 ± 580 nM
same,IC50,DU145; read-out: Cisplatin,1680 ± 40 nM
CC[n+]1c(/C=C2\Sc3oc4ccccc4c3N2C)ccc2cc(C)ccc21.[I-] [MMR201],IC50,"A2780/cp70; Homo sapiens, A2780/CP70",17 ± 1 nM
same,A2780/cp70 RF (Resistance Factor),A2780/cp70,0.29
same,IC50,"[1]; Homo sapiens, A2780/CP70",23 ± 1 nM
same,RF (Resistance Factor),[1],0.19
same,IC50,"COLO320DM; Homo sapiens, COLO 320DM, MMR proficient, p53 mut, read-out: MMR201 IC50",594 ± 28.5 nM
same,IC50,"T84; Homo sapiens, MMR proficient, p53 ?, read-out: MMR201 IC50",1470 ± 175 nM
same,IC50,"RKO (MLH1); MMR deficient, read-out: MMR201 IC50",27.2 ± 0.7 nM
same,IC50,"DLD1 (MSH6); Homo sapiens, DLD-1, MMR deficient, p53 mut, read-out: MMR201 IC50",186 ± 8.3 nM
same,IC50,"HCT15 (MSH6); Homo sapiens, HCT-15, MMR deficient, p53 wt/mut, read-out: MMR201 IC50",584 ± 55.1 nM
same,IC50,"BE; MMR status unknown, p53 ?, read-out: MMR201 IC50",125 ± 17.3 nM
same,IC50,"OVCAR5; Homo sapiens, OVCAR-5, read-out: MMR201",699 ± 54.6 nM
same,IC50,"MDAMB231; Homo sapiens, MDA-MB-231, read-out: MMR201",235 ± 22.5 nM
same,IC50,"T47D; Homo sapiens, read-out: MMR201",319 ± 26 nM
same,IC50,"MCF7; Homo sapiens, read-out: MMR201",870 ± 54.8 nM
same,IC50,LDAN; read-out: MMR201,114.4 ± 0.07 nM
same,IC50,CALU; read-out: MMR201,380 ± 7.5 nM
same,IC50,"DU145; Homo sapiens, DU-145, read-out: MMR201",328 ± 7.8 nM
